Here are results for two substances from article PMC2064103 (The Journal of Cell Biology, 2007).

What all share (assay): radiolabelled glycopeptide formation, ConA Sepharose capture, gamma counting
Test [1] concerns T. cruzi OST. It counts as biochemical, Trypanosoma cruzi. Conditions: 10 μM acceptor tripeptide; Mg2+, Mn2+, pH 7.4; non-cooperative.
Test [2] deals with T. vaginalis OST. The test is classed as biochemical, Trichomonas vaginalis. The following applies: 10 μM acceptor tripeptide; Mg2+, Mn2+, pH 7.4; non-cooperative.
In test [3] the test system is E. histolytica OST. It counts as biochemical, Entamoeba histolytica. Conditions: 15 μM acceptor tripeptide; Mg2+, Mn2+, pH 7.4; non-cooperative.

M9GN2-PP-Dol: the Michaelis constant (Km) (commonly the substrate concentration at which the rate is half of its maximum) in test [1] amounted to 490 nM. On to M5GN2-PP-Dol, for which the Km in test [2] came to 220 nM; in test [3], 720 nM.
